Measurements: US20250091994A1, “RAS/RAF BINDING INHIBITOR COMPOUND” (NATIONAL UNIVERSITY CORPORATION KOBE UNIVERSITY, priority 2021, published 2025)

Experiments:
[1] = system: large bowel cancer cell SW620 (K-RasG12V); experiment: Cell growth inhibition, adherent cells SW620; assay type: cell-based; settings: Homo sapiens, SW-620, 72 hours; for inhibition at 3.2 µM: read-out: SW620 (KRasG12V) % inhibition at 3.2 μM (***)
Method: (§1) The cell growth inhibitory activity of the compound of the present invention on human culture cells having active-type mutation in Ras was evaluated by the below-mentioned method using suspension cancer cells {acute lymphoblastic leukemia cells CCRF-CEM (K-RasG12D), promyelocytic leukemia cells HL60 (N-RasQ61L), acute lymphoblastic leukemia cells MOLT4 (N-RasG12C), and small cell lung cancer cells SHP77 (K-RasG12V)} and adherent cancer cells {large bowel cancer cells SW480 (K-RasG12V) and large bowel cancer cell SW620 (K-RasG12V)}.
(Case of adherent cells) The cells suspended in a medium containing 10% FBS (1 to 2×10^4 cells/well) were seeded on a 96-well plate, and were then cultured at 37° C. in the presence of […]. Thereafter, the medium was exchanged with a medium containing […], to which each compound solution (final DMSO concentration: […]) had been added, and the cells were then cultured at 37° C. in the presence of […] for 72 hours.
(§2) Thereafter, the number of viable cells was measured using Cell Counting Reagent (Nacalai Tesque) in accordance with the manufacturer's instructions. Inhibition by the test compound was determined according to the following equation: […]

[2] = biological target: GTPγS-bound human HRasG12V / human c-Raf-1 Ras binding domain (RBD) (Homo sapiens (Human), UniProt P01112, G12V); experiment: Ras-Raf binding inhibition ELISA; settings: for IC50: anti-HRas antibody C-20, read-out: ELISA IC50 (μM): 1st Ab_C-20
Method in brief: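 GST-c-Raf-1 RBD (aa 50-131) immobilized on glutathione plates, then GTPγS-loaded full-length HRasG12V added with compound (final 10% DMSO), 1 h at 30 °C, pH 7.4 Tris buffer. Bound Ras detected by anti-HRas antibody (C-20 or 259) and HRP secondary, TMB read at OD450; IC50 from inhibition.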

[3] = system: small cell lung cancer cells SHP77 (K-RasG12V); experiment: Cell growth inhibition, suspension cells SHP77; assay type: cell-based; settings: Homo sapiens, 72 hours; for inhibition at 3.2 µM: read-out: SHP77 (KRasG12V) % inhibition at 3.2 μM (**)
Method: as §1
(§3) (Case of suspension cells) The cells suspended in a medium containing 0.5% (v/v) fetal bovine serum (FBS) and each compound solution (final DMSO concentration: 1%) were seeded on a 96-well plate (2 to 4×10^4 cells/well), and the resulting mixture was then cultured at 37° C. in the presence of 5% CO2 for 72 hours.
as §2

[4] = system: promyelocytic leukemia cells HL60 (N-RasQ61L); experiment: Cell growth inhibition, suspension cells HL60; assay type: cell-based; settings: Homo sapiens, HL-60; 3.2 μM (****), 72 hours; read-out: HL-60 (NRasQ61L) % inhibition at 3.2 μM (****)
Method in brief: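 Suspension cells, 2 to 4×10^4 per well, cultured with compound in medium with 0.5% FBS (1% DMSO final) for 72 h at 37° C, 5% CO2. Viable cells counted with Cell Counting Reagent; inhibition calculated relative to controls.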

[5] = system: acute lymphoblastic leukemia cells CCRF-CEM (K-RasG12D); experiment: Cell growth inhibition, suspension cells CCRF-CEM; assay type: cell-based; settings: Homo sapiens, 3.2 μM (***), 72 hours, read-out: CCRF-CEM (KRasG12D) % inhibition at 3.2 μM (***)
Method: as §1, §3, §2

Chain of GTPγS-bound human HRasG12V / human c-Raf-1 Ras binding domain (RBD) (P01112 whole entry G12V, the tested form may be a part): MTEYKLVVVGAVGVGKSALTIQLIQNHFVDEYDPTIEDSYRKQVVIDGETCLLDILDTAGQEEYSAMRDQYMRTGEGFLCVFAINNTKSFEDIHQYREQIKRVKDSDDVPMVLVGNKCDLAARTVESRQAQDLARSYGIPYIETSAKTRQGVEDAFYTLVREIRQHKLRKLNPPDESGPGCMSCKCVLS

Compound	inhibition at 3.2 µM [1] [%]	inhibition at 1 µM [2] [%]	IC50 [2] [µM]	inhibition at 3.2 µM [3] [%]	inhibition at 1 µM ([1]; 1 μM, read-out: SW620 (KRasG12V) % inhibition at 1 μM) [%]	inhibition at 1 µM ([3]; 1 μM, read-out: SHP77 (KRasG12V) % inhibition at 1 μM) [%]	inhibition at 3.2 µM [4] [%]	inhibition at 3.2 µM [5] [%]
CC(=O)N1/C(=C\c2cc(-c3cccc(-c4ccccc4)c3)c3cc(C(=O)O)ccc3n2)C(=O)c2ccccc21 [Example 152, (Z)-4-([1,1′-biphenyl]-3-yl)-2-((1-acetyl-3-oxo-indolin-2-ylidene)-methyl)quinoline-6-carboxylic acid]	97.2	53.5	0.9	81.1	–	–	–	–
CC(=O)N1/C(=C\c2cc(-c3cccc4ccccc34)c3cc(C(=O)O)ccc3n2)C(=O)c2ccccc21 [Example 153, (Z)-2-((1-acetyl-3-oxoindolin-2-ylidene)methyl)-4-(naphthalen-1-yl)quinoline-6-carboxylic acid]	96.1	63.1	1.1	65.7	–	–	–	–
CC(=O)N1/C(=C\c2cc(-c3ccc(-c4ccccc4)cc3)c3cc(C(=O)O)ccc3n2)C(=O)c2ccccc21 [Example 156, (Z)-4-([1,1′-biphenyl]-4-yl)-2-((1-acetyl-3-oxoindolin-2-ylidene)methyl)-quinoline-6-carboxylic acid]	99	52	0.9	35.1	–	–	–	–
CC(=O)N1/C(=C\c2cc(-c3ccc4ccccc4c3)c3cc(C(=O)O)ccc3n2)C(=O)c2ccccc21 [Example 157, (Z)-2-((1-acetyl-3-oxoindolin-2-ylidene)methyl)-4-(naphthalen-2-yl)quinoline-6-carboxylic acid]	97.5	61.4	0.6	49.2	–	–	–	–
CC(=O)N1/C(=C\c2cc(-c3cccc(-c4ccccc4)c3)c3cc(C(=O)N4CCN(C5COC5)CC4)ccc3n2)C(=O)c2ccccc21 [Example 158, (Z)-2-((4-([1,1′-biphenyl]-3-yl)-6-(4-(oxetan-3-yl)-piperazine-1-carbonyl)quinolin-2-yl)methylene)-1-acetylindolin-3-one]	58.5	59.2	0.8	72.4	–	–	–	–
CC(=O)N1/C(=C\c2cc(-c3cccc4ccccc34)c3cc(C(=O)N4CCN(C5COC5)CC4)ccc3n2)C(=O)c2ccccc21 [Example 159, (Z)-1-acetyl-2-((4-(naphthalen-1-yl)-6-(4-(oxetan-3-yl)piperazine-1-carbonyl)quinolin-2-yl)methylene)-indolin-3-one]	96.6	72.7	0.3	52.6	–	–	–	–
CC(=O)N1/C(=C\c2cc(-c3ccc4ccccc4c3)c3cc(C(=O)N4CCN(C5COC5)CC4)ccc3n2)C(=O)c2ccccc21 [Example 163, (Z)-1-acetyl-2-((4-(naphthalen-2-yl)-6-(4-(oxetan-3-yl)piperazine-1-carbonyl)quinolin-2-yl)methylene)-indolin-3-one]	34.7	63.8	0.7	72.3	–	–	–	–
CC(=O)N1/C(=C\c2cc(-c3cccc(-c4ccccc4)c3)c3cc(CNC4CCOCC4)ccc3n2)C(=O)c2ccccc21 [Example 164, (Z)-2-((4-([1,1′-biphenyl]-3-yl)-6-(((tetrahydro-2H-pyran-4-yl)amino)-methyl)quinolin-2-yl)methylene)-1-acetylindolin-3-one]	–	48.7	1.2	43.5	–	–	–	–
CC(=O)N1/C(=C\c2cc(-c3cccc4cccnc34)c3cc(CNC4CCOCC4)ccc3n2)C(=O)c2ccccc21 [Example 167, (Z)-1-acetyl-2-((6-(((tetrahydro-2H-pyran-4-yl)-amino)methyl)-[4,8′-biquinolin]-2-yl)methylene)-indolin-3-one]	64.4	62.2	0.8	65.8	–	–	–	–
CC(=O)N1/C(=C\c2cc(-c3ccc(-c4ccccc4)cc3)c3cc(CNC4CCOCC4)ccc3n2)C(=O)c2ccccc21 [Example 168, (Z)-2-((4-([1,1′-biphenyl]-4-yl)-6-(((tetrahydro-2H-pyran-4-yl)amino)-methyl)quinolin-2-yl)methylene)-1-acetylindolin-3-one]	–	48.4	1.3	53.1	–	–	–	–
CC(=O)N1/C(=C\c2cc(-c3ccc4ccccc4c3)c3cc(CNC4CCOCC4)ccc3n2)C(=O)c2ccccc21 [Example 169, (Z)-1-acetyl-2-((4-(naphthalen-2-yl)-6-(((tetrahydro-2H-pyran-4-yl)-amino)methyl)-quinolin-2-yl)-methylene)indolin-3-one]	35.1	52.4	0.9	51.5	–	–	–	–
CC(=O)N1/C(=C\c2cc(-c3nccn3C)c3cc(C(=O)N4CCOCC4)ccc3n2)C(=O)c2ccccc21 [Example 180, (Z)-1-acetyl-2-((4-(1-methyl-1H-imidazol-2-yl)-6-(morpholine-4-carbonyl)quinolin-2-yl)methylene)-indolin-3-one]	–	43.7	1.5	69.2	–	–	–	–
CC(=O)N1CCc2cc(-c3cc(/C=C4/C(=O)c5ccccc5N4C(C)=O)nc4ccccc34)ccc2C1 [Example 187, (Z)-1-acetyl-2-((4-(2-acetyl-1,2,3,4-tetra-hydroisoquinolin-6-yl)-quinolin-2-yl)methylene)-indolin-3-one]	–	66.7	–	–	39.3	66.8	–	–
CC(=O)N1CCc2c(cccc2-c2cc(/C=C3/C(=O)c4ccccc4N3C(C)=O)nc3ccccc23)C1 [Example 193, (Z)-1-acetyl-2-((4-(2-acetyl-1,2,3,4-tetra-hydroisoquinolin-5-yl)quinolin-2-yl)methylene)-indolin-3-one]	96.1	60.4	–	98.1	–	–	–	–
CC(=O)N1/C(=C\c2cc(-c3cnccn3)c3cc(C(=O)N4CCOCC4)ccc3n2)C(=O)c2ccccc21 [Example 194, (Z)-1-acetyl-2-((6-(morpholine-4-carbonyl)-4-(pyrazin-2-yl)-quinolin-2-yl)-methylene)indolin-3-one]	–	55.4	0.9	58.3	–	–	–	–
CC(=O)N1/C(=C\c2ccc3c(-c4cccc5ccccc45)c(C(=O)N4CCOCC4)ccc3n2)C(=O)c2ccccc21 [Example 195, (Z)-1-acetyl-2-((6-(morpholine-4-carbonyl)-5-(naphthalen-1-yl)-quinolin-2-yl)-methylene)indolin-3-one]	95.4	55.7	0.9	96.4	–	–	–	–
CC(=O)N1/C(=C\c2nc3ccc(C(=O)N4CCOCC4)cc3cc2-c2cnn(C)c2)C(=O)c2ccccc21 [Example 198, (Z)-1-acetyl-2-((3-(1-methyl-1H-pyrazol-4-yl)-6-(morpholine-4-carbonyl)quinolin-2-yl)methylene)-indolin-3-one]	30.4	–	–	–	–	–	75.1	68.7
CC(=O)N1/C(=C\c2nc3ccc(C(=O)O)cc3cc2-c2cccc3ccccc23)C(=O)c2ccccc21 [Example 202, (Z)-2-((1-acetyl-3-oxoindolin-2-ylidene)methyl)-3-(naphthalen-1-yl)-quinoline-6-carboxylic acid]	96.6	–	–	63.6	–	–	–	–
CC(=O)N1/C(=C\c2nc3ccc(-c4nnn[nH]4)cc3cc2-c2cccc3ccccc23)C(=O)c2ccccc21 [Example 214, (Z)-1-acetyl-2-((3-(naphthalen-1-yl)-6-(1H-tetrazol-5-yl)quinolin-2-yl)methylene)-indolin-3-one]	92.2	–	28.9	–	–	–	36.7	96
